Data: patent US20040138285A1, “Chondrogenesis promoters” (priority 2001, published 2004)

Assays:
[1] = test system: rat articular chondrocytes; experiment: Cartilage matrix production promoting effect of compound A and PD98059 (alcian blue staining), Example 2; format: cell-based; conditions: one week; for ratio of alcian blue positive cells (photomicrograph after alcian blue staining): compound A 2×10^−6 mol/L or PD98059 5×10^−5 mol/L alone, vs vehicle control (FIG. 7); for production of the cartilage matrix (alcian blue staining intensity, absorption at 595 nm): each agent alone (compound A 2×10^−6 mol/L; PD98059 5×10^−5 mol/L), vs vehicle control, p<0.05 (FIG. 8)
Procedure: A 5-week-old male SD rat (Charles River Japan Corp.) was euthanized, and thereafter the femur was removed therefrom, and the articular cartilage layer was stripped off from the knee joint surface of the femur with a scalpel. The articular cartilage obtained was treated with 0.15% trypsin (DIFCO Lab.)/0.05% EDTA (Nacalai Tesque, Inc.) at 37° C. for one hour, and thereafter the matrix was decomposed while being agitated at 37° C. in 0.15% collagenase (WORTHINGTON Corp.) for three hours, thereby obtaining a cell suspension. The cartilage cells obtained were seeded at the cell density of 20000 per well in a 24-well culturing plate (Falcon Corp.) coated with type I collagen (Nitta Gelatin Inc.) and were cultured in a Dulbecco's modified Eagle medium (Gibco) containing 10% fetal bovine serum (REHATUIN) and antibiotic-antimycotic (Gibco) (Calcif. Tissue Int. 19: 179-187, 1975). After achievement of the confluent state of cells, 50 μg/mL ascorbic acid (Wako Pure Chemical Industries) was added to the medium, and either or both of 2×10^−6 mol/L compound A and 2×10^−6 to 5×10^−5 mol/L compound with MEK1 inhibitory activity PD98059 (New England Biolab) were further added thereto, followed by culture for one week. 0.12% DMSO (JUNSEI CHEMICAL CO., LTD) was used as a solvent vehicle control. The medium was replaced every two to three days and the above agents were added every replacement.
After completion of the culture, the cell layer was fixed at room temperature in 4% paraformaldehyde solution (Wako Pure Chemical Industries) for two hours and then washed with distilled water and 5% acetic acid of pH 1.0, and thereafter the cartilage matrix was stained at room temperature with alcian blue of pH 1.0 (Wako Pure Chemical Industries) for two hours. The cell layer was washed with 5% acetic acid and distilled water and then dried, 6 mol/L guanidine hydrochloride (Nacalai Tesque, Inc.) was added to the cell layer to extract the dye therefrom, and absorption was measured at 595 nm with the Microplate reader (BioRad).

[2] = test system: rat articular chondrocytes; experiment: Cartilage matrix production promoting effect of compound A and U0126 (alcian blue staining, phase contrast morphology), Example 1; format: cell-based
Procedure: A 5-week-old male SD rat (Charles River Japan Corp.) was euthanized, and thereafter the femur was removed therefrom, and the articular cartilage layer was stripped off from the knee joint surface of the femur with a scalpel. The articular cartilage obtained was treated with 0.15% trypsin (DIFCO Lab.)/0.05% EDTA (KANTO KAGAKU CORP.) at 37° C. for one hour, and thereafter the matrix was decomposed while being agitated at 37° C. in 0.15% collagenase (WORTHINGTON Corp.) for three hours, thereby obtaining a cell suspension. […] 0.12% DMSO (Wako Pure Chemical Industries) was used as a solvent vehicle control. The medium was replaced every two to three days and the above agents were added every replacement.
After completion of the culture, the cell layer was fixed at room temperature in 4% paraformaldehyde solution (Wako Pure Chemical Industries) for two hours and then washed with distilled water and 5% acetic acid of pH 1.0, and thereafter the cartilage matrix was stained at room temperature with alcian blue of pH 1.0 (Wako Pure Chemical Industries) for two hours. The cell layer was washed with 5% acetic acid and distilled water and then dried, 6 mol/L guanidine hydrochloride (Nacalai Tesque, Inc.) was added to the cell layer to extract the dye therefrom, and the absorption was measured at 630 nm with a Microplate reader (BioRad).

Row | SMILES | ratio of alcian blue positive cells (photomicrograph after alcian blue staining) [1] | production of the cartilage matrix (alcian blue staining intensity, absorption at 595 nm) [1] | production of the matrix and morphology of chondrocytes (phase contrast photomicrograph) ([2]; compound A 2×10^−6 mol/L alone, cultured one week, vs vehicle control 0.12% DMSO (FIG. 2)) | production of the cartilage matrix (alcian blue staining intensity, absorption at 630 nm) ([2]; each agent alone (compound A 5×10^−7 to 2×10^−6 mol/L; U0126 1×10^−7 to 1×10^−5 mol/L), one week, vs vehicle control, p<0.05 (FIGS. 5 and 6))
1 | COc1cccc(-c2cc(=O)c3ccccc3o2)c1N [PD98059, reference compound] | the ratio of alcian blue positive cells increased | significantly promoted the production of the cartilage matrix | – | –
2 | CCOC(CN1C(=O)[C@](CC(=O)Nc2ccc(C)cc2)(NC(=O)Nc2ccc(C)cc2)c2ccccc21)OCC [compound A] | the ratio of alcian blue positive cells increased | significantly promoted the production of the cartilage matrix | production of the matrix was enhanced | significantly promoted the production of the cartilage matrix
